The text below walks through data of patent EP4768487A1, “FUSED LACTAM RING COMPOUND AND USE THEREOF” (Chengdu Zenitar Biomedical Technology Co., Ltd., priority 2023, dated 2025).

The test system of data set [1] is MDA-MB-436 breast cancer subcutaneous xenograft tumor model. Nature of the data set: In vivo pharmacodynamic study of compound 2 in MDA-MB-436 subcutaneous xenograft tumor model. The conditions noted are these: oral once daily, 30 days.
Description: Experimental process: Twenty-four female NOD/SCID mice were used in the experiment. […] All groups were subjected to oral administration once daily. Meanwhile, the mice were weighed every 2 days, and the length and width of the tumors were measured with a vernier caliper. After 30 days of administration, the tumor-bearing mice were anesthetized and sacrificed. The tumor tissues were dissected, weighed, and photographed, and the tumor growth inhibition rates were calculated.
The nature of data set [2]: Cerebrospinal fluid and plasma distribution in vivo. The settings on record: rat, male rats, intravenous 5 mg/kg, n = 1.
Data set [3] addresses T1, PARP1 (Homo sapiens, UniProt P09874).
T1 construct: purchased BPS 80501
Nature of the data set: PARP1 enzyme assay (histone-coated plate, chemiluminescence). The conditions noted are these: PARP1 0.02 nM, DNA 0.8 nM, NAD+ 3.5 µM; read-out: PARP-1 IC50. The format is biochemical.

The mark [4] stands for this setting: cerebrospinal fluid, read-out: Cerebrospinal fluid.

Read-outs that look alike come from different tables or passages of the source.

T1 sequence (P09874 whole entry): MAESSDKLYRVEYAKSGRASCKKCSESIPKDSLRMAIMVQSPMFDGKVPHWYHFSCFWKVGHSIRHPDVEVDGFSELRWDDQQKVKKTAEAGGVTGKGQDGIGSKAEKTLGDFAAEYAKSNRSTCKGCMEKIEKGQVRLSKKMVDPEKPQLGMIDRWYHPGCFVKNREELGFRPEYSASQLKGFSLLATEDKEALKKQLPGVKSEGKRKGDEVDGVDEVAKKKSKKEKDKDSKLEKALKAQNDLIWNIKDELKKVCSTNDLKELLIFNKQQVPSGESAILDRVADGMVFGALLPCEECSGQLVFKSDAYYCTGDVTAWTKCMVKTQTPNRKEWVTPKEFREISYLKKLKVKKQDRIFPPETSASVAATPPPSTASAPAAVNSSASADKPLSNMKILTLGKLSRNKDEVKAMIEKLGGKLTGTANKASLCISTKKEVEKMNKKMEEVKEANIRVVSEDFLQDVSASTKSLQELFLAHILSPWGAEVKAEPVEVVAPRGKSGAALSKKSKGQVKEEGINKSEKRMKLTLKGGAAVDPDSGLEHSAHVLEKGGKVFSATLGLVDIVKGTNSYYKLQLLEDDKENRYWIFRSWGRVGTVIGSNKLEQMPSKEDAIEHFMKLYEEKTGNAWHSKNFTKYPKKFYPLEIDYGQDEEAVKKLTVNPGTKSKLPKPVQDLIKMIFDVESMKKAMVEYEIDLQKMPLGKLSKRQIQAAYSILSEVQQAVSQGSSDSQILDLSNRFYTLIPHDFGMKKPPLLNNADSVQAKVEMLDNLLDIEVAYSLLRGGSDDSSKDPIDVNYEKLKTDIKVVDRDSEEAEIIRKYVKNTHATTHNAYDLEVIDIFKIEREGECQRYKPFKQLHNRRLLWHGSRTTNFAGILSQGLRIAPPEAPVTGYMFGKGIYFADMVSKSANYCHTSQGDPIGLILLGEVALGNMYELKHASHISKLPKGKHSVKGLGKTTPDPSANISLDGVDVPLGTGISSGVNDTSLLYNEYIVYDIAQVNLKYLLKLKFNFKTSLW

Regarding `CCc1cc2c([nH]c1=O)CC(CN1CCN(c3ccc(C(=O)NC)nc3F)CC1)OC2` (centres unmarked) [Compound 2, 5-(4-((3-Ethyl-2-oxo-1,5,7,8-tetrahydro-2H-pyrano[4,3-b]pyridin-7-yl)methyl)piperazin-1-yl)-6-fluoro-N-methyl picolinamide], the “tumor growth inhibition rate” value in data set [1] (1 mg/kg) amounted to 92.61%. For the same molecule, in data set [1] (3 mg/kg), the “tumor growth inhibition rate” value is recorded as 95.74% and the “tumor inhibitory effect compared with the reference drug Olaparib 100 mg/kg group (in words)” value is given as “significantly superior”.

A word on the IC50: it is the point on the concentration scale where inhibition reaches its midpoint. With `CNC(=O)c1ccc(N2CCN(CC3Cc4[nH]c(=O)c(C)cc4CO3)CC2)c(Cl)n1` (centres unmarked) [Example 74, 6-Chloro-N-methyl-5-(4-((3-methyl-2-oxo-1,5,7,8-tetrahydro-2H-pyrano[4,3-b]pyridin-7-yl)methyl)piperazin-1-yl)picolinamide], in data set [2] (setting [4]), the concentration at 0.25 h was 60 ng/g and the concentration at 2 h was 19 ng/g. Besides, in data set [2] (plasma, read-out: Plasma), the concentration at 0.25 h is 8790 ng/mL and the concentration at 2 h is 5560 ng/mL. The IC50 in data set [3] was no more than 50 nM.
